As usually defined, the Ki is a measure of affinity in units of concentration, obtained from inhibition or displacement.

Read-outs that look alike come from different tables or passages of the source. Some results are limits rather than exact numbers.

Test [1] addresses Mcl-1 (Homo sapiens (Human), UniProt Q07820). The experiment in a line: TR-FRET binding assay, FITC-Bak peptide and MBP-tagged Mcl-1. As to conditions: read-out: Ki for Inhibition of Mcl-1 by TR-FRET assay. As to the method: Compounds are diluted in DMSO in a 16-point, semilog serial dilution scheme. […] The plate was mixed and incubated for 3 hours at room temperature. […] TR-FRET signal is plotted and IC50 and Ki values are calculated in the same manner as the fluorescence polarization anisotropy based competition assays.
(In TR-FRET formats the signal depends on donor and acceptor labels being close together.)

Test [2] concerns H929 human cancer cell lines. The experiment in a line: Cellular viability / proliferation (Cell TiterGlo, 72 h). In kind it is cell-based. The gist of the method:
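Top dose 50 μM, serially diluted 2-fold, applied one day after seeding (1,000 cells/well, 10% FBS), DMSO below 1%.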
(In general: ATP-based viability assays read luminescence as a measure of living cells.)

Where [3] appears, read: Homo sapiens, NCI-H929, 72 h, read-out: GI50 on cellular proliferation of H929 human cancer cell lines, H929 cells, 72 h, Cell TiterGlo, 10% FBS.

Chain of Mcl-1 (Q07820 172-327): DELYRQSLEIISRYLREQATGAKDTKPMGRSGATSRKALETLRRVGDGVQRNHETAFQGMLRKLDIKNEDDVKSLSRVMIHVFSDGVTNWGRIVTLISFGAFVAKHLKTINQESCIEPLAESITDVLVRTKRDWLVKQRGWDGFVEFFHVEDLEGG

Turning to `COCCOCc1cc(N2C[C@@H](C)n3c(c(CCCOc4cc(C)c(Cl)c(C)c4)c4ccc(Cl)c(-c5c(C)nn(C)c5C)c43)C2=O)c2c(c1)cc(C(=O)O)n2C` [Example 595, (R)-7-(7-chloro-10-(3-(4-chloro-3,5-dimethylphenoxy)propyl)-4-methyl-1-oxo-6-(1,3,5-trimethyl-1H-pyrazol-4-yl)-3,4-dihydropyrazino[1,2-a]indol-2(1H)-yl)-5-((2-methoxyethoxy)methyl)-1-methyl-1H-indole-2-carboxylic acid], the Ki in test [1] is less than 0.2 nM. In addition, in test [2] (setting [3]), the GI50 was less than 200 nM.
For `Cc1cc(N2C[C@@H](C)n3c(c(CCCOc4cc(C)c(Cl)c(C)c4)c4ccc(Cl)c(-c5c(C)nn(C)c5C)c43)C2=O)c2c(c1)cc(C(=O)O)n2CC(=O)N(C)C` [Example 596, (R)-7-(7-chloro-10-(3-(4-chloro-3,5-dimethylphenoxy)propyl)-4-methyl-1-oxo-6-(1,3,5-trimethyl-1H-pyrazol-4-yl)-3,4-dihydropyrazino[1,2-a]indol-2(1H)-yl)-1-(2-(dimethylamino)-2-oxoethyl)-5-methyl-1H-indole-2-carboxylic acid] the same measures were less than 0.2 nM and 1300 nM.
As to `Cc1cc(N2C[C@@H](C)n3c(c(CCCOc4cc(C)c(Cl)c(C)c4)c4ccc(Cl)c(-c5c(C)nn(C)c5C)c43)C2=O)c2c(c1)cc(C(=O)O)n2CC(=O)N1CCOCC1` [Example 598, (R)-7-(7-chloro-10-(3-(4-chloro-3,5-dimethylphenoxy)propyl)-4-methyl-1-oxo-6-(1,3,5-trimethyl-1H-pyrazol-4-yl)-3,4-dihydropyrazino[1,2-a]indol-2(1H)-yl)-5-methyl-1-(2-morpholino-2-oxoethyl)-1H-indole-2-carboxylic acid], in test [1], the Ki was less than 0.2 nM. Besides, in test [2] (setting [3]), the GI50 was 1900 nM.
For the compound `Cc1cc(C)nc(Cn2c(C(=O)O)cc3cc(C)cc(N4C[C@@H](C)n5c(c(CCCOc6cc(C)c(Cl)c(C)c6)c6ccc(Cl)c(-c7c(C)nn(C)c7C)c65)C4=O)c32)c1` [Example 599, (R)-7-(7-chloro-10-(3-(4-chloro-3,5-dimethylphenoxy)propyl)-4-methyl-1-oxo-6-(1,3,5-trimethyl-1H-pyrazol-4-yl)-3,4-dihydropyrazino[1,2-a]indol-2(1H)-yl)-1-((4,6-dimethylpyridin-2-yl)methyl)-5-methyl-1H-indole-2-carboxylic acid], in test [1], the Ki is less than 0.2 nM. For the same compound, in test [2] (setting [3]), the GI50 was less than 200 nM.
For `Cc1cc(N2C[C@@H](C)n3c(c(CCCOc4cc(C)c(Cl)c(C)c4)c4ccc(Cl)c(-c5c(C)nn(C)c5C)c43)C2=O)c2c(c1)cc(C(=O)O)n2Cc1cc(C2=NCCO2)ccn1` [Example 600, (R)-7-(7-chloro-10-(3-(4-chloro-3,5-dimethylphenoxy)propyl)-4-methyl-1-oxo-6-(1,3,5-trimethyl-1H-pyrazol-4-yl)-3,4-dihydropyrazino[1,2-a]indol-2(1H)-yl)-1-((4-(4,5-dihydrooxazol-2-yl)pyridin-2-yl)methyl)-5-methyl-1H-indole-2-carboxylic acid], in test [1], the Ki is less than 0.2 nM. The GI50 in test [2] (setting [3]) was 2500 nM.
Regarding `COCCn1cc(N2C[C@@H](C)n3c(c(CCCOc4cc(C)c(Cl)c(C)c4)c4ccc(Cl)c(-c5c(C)nn(C)c5C)c43)C2=O)c2cc(-c3ncn(CCN4CCN(C)CC4)n3)ccc21` [Example 602, (R)-7-Chloro-10-(3-(4-chloro-3,5-dimethylphenoxy)propyl)-2-(1-(2-methoxyethyl)-5-(1-(2-(4-methylpiperazin-1-yl)ethyl)-1H-1,2,4-triazol-3-yl)-1H-indol-3-yl)-4-methyl-6-(1,3,5-trimethyl-1H-pyrazol-4-yl)-3,4-dihydropyrazino[1,2-a]indol-1(2H)-one], in test [1], the Ki was found to be 5.9 nM. For the same compound, the GI50 in test [2] (setting [3]) is 430 nM.
Consider `Cc1cc(OCCCc2c3n(c4c(-c5c(C)nn(C)c5C)c(Cl)ccc24)[C@H](C)CN(c2cn(CCN4CCN(C)C(=O)C4)c4ccc(-c5ncn(C)n5)cc24)C3=O)cc(C)c1Cl` [Example 603, (R)-7-Chloro-10-(3-(4-chloro-3,5-dimethylphenoxy)propyl)-4-methyl-2-(5-(1-methyl-1H-1,2,4-triazol-3-yl)-1-(2-(4-methyl-3-oxopiperazin-1-yl)ethyl)-1H-indol-3-yl)-6-(1,3,5-trimethyl-1H-pyrazol-4-yl)-3,4-dihydropyrazino[1,2-a]indol-1(2H)-one], for which, in test [1], the Ki stood at 0.89 nM. Also, the GI50 in test [2] (setting [3]) was less than 200 nM.
With `COc1cc(N2C[C@@H](C)n3c(c(CCCOc4cc(C)c(Cl)c(C)c4)c4ccc(Cl)c(-c5c(C)nn(C)c5C)c43)C2=O)c2c(c1)c(C(=O)O)cn2Cc1ccccn1` [Example 605, (R)-7-(7-chloro-10-(3-(4-chloro-3,5-dimethylphenoxy)propyl)-4-methyl-1-oxo-6-(1,3,5-trimethyl-1H-pyrazol-4-yl)-3,4-dihydropyrazino[1,2-a]indol-2(1H)-yl)-5-methoxy-1-(pyridin-2-ylmethyl)-1H-indole-3-carboxylic acid], the Ki in test [1] was determined as 0.45 nM. Moreover, the GI50 in test [2] (setting [3]) came out at 490 nM.
For `Cc1cc(OCCCc2c3n(c4c(-c5c(C)nn(C)c5C)c(Cl)ccc24)[C@H](C)CN(c2cc(OCCOC(C)C)cc4c(C(=O)O)cn(Cc5ccccn5)c24)C3=O)cc(C)c1Cl` [Example 606, (R)-7-(7-chloro-10-(3-(4-chloro-3,5-dimethylphenoxy)propyl)-4-methyl-1-oxo-6-(1,3,5-trimethyl-1H-pyrazol-4-yl)-3,4-dihydropyrazino[1,2-a]indol-2(1H)-yl)-5-(2-isopropoxyethoxy)-1-(pyridin-2-ylmethyl)-1H-indole-3-carboxylic acid] the same measures were 0.47 nM and 600 nM.
For `COCc1cc(N2C[C@@H](C)n3c(c(CCCOc4cc(C)c(Cl)c(C)c4)c4ccc(Cl)c(-c5c(C)nn(C)c5C)c43)C2=O)c2c(c1)cc(C(=O)O)n2C` [Example 607, (R)-7-(7-chloro-10-(3-(4-chloro-3,5-dimethylphenoxy)propyl)-4-methyl-1-oxo-6-(1,3,5-trimethyl-1H-pyrazol-4-yl)-3,4-dihydropyrazino[1,2-a]indol-2(1H)-yl)-5-(methoxymethyl)-1-methyl-1H-indole-2-carboxylic acid] the same measures were less than 0.2 nM and less than 200 nM.
For the compound `Cc1cc(OCCCc2c3n(c4c(-c5c(C)nn(C)c5C)c(Cl)ccc24)[C@H](C)CN(c2cc(N(C)C(=O)[C@H](C)N(C)C)cc4c(C(=O)O)cn(C)c24)C3=O)cc(C)c1Cl` [Example 608, 7-((R)-7-chloro-10-(3-(4-chloro-3,5-dimethylphenoxy)propyl)-4-methyl-1-oxo-6-(1,3,5-trimethyl-1H-pyrazol-4-yl)-3,4-dihydropyrazino[1,2-a]indol-2(1H)-yl)-5-((S)-2-(dimethylamino)-N-methylpropanamido)-1-methyl-1H-indole-3-carboxylic acid], the Ki in test [1] is 0.91 nM. In addition, in test [2] (setting [3]), the GI50 is 304000 nM.
Regarding `COCCOc1cc(N2C[C@@H](C)n3c(c(CCCOc4cc(C)c(Cl)c(C)c4)c4ccc(Cl)c(-c5c(C)nn(C)c5C)c43)C2=O)c2c(c1)c(C(=O)O)cn2Cc1ccccn1` [Example 609, (R)-7-(7-chloro-10-(3-(4-chloro-3,5-dimethylphenoxy)propyl)-4-methyl-1-oxo-6-(1,3,5-trimethyl-1H-pyrazol-4-yl)-3,4-dihydropyrazino[1,2-a]indol-2(1H)-yl)-5-(2-methoxyethoxy)-1-(pyridin-2-ylmethyl)-1H-indole-3-carboxylic acid], the Ki in test [1] was determined as 0.26 nM. Besides, the GI50 in test [2] (setting [3]) was 340 nM.
Take `CCOCCOc1cc(N2C[C@@H](C)n3c(c(CCCOc4cc(C)c(Cl)c(C)c4)c4ccc(Cl)c(-c5c(C)nn(C)c5C)c43)C2=O)c2c(c1)c(C(=O)O)cn2Cc1ccccn1` [Example 610, (R)-7-(7-chloro-10-(3-(4-chloro-3,5-dimethylphenoxy)propyl)-4-methyl-1-oxo-6-(1,3,5-trimethyl-1H-pyrazol-4-yl)-3,4-dihydropyrazino[1,2-a]indol-2(1H)-yl)-5-(2-ethoxyethoxy)-1-(pyridin-2-ylmethyl)-1H-indole-3-carboxylic acid]: the Ki in test [1] is less than 0.2 nM. Further, in test [2] (setting [3]), the GI50 is 400 nM.
`Cc1cc(OCCCc2c3n(c4c(-c5c(C)nn(C)c5C)c(Cl)ccc24)[C@H](C)CN(c2cc(COCCN(C)C)cc4cc(C(=O)O)n(C)c24)C3=O)cc(C)c1Cl` [Example 614, (R)-7-(7-chloro-10-(3-(4-chloro-3,5-dimethylphenoxy)propyl)-4-methyl-1-oxo-6-(1,3,5-trimethyl-1H-pyrazol-4-yl)-3,4-dihydropyrazino[1,2-a]indol-2(1H)-yl)-5-((2-(dimethylamino)ethoxy)methyl)-1-methyl-1H-indole-2-carboxylic acid]: the Ki in test [1] is less than 0.2 nM. The GI50 in test [2] (setting [3]) was found to be 690 nM.
As to `COCCn1cc(N2C[C@@H](C)n3c(c(CCCOc4cc(C)c(Cl)c(C)c4)c4ccc(Cl)c(-c5c(C)nn(C)c5C)c43)C2=O)c2cc(-c3ncn(CCN4CCOCC4)n3)ccc21` [Example 615, (R)-7-Chloro-10-(3-(4-chloro-3,5-dimethylphenoxy)propyl)-2-(1-(2-methoxyethyl)-5-(1-(2-morpholinoethyl)-1H-1,2,4-triazol-3-yl)-1H-indol-3-yl)-4-methyl-6-(1,3,5-trimethyl-1H-pyrazol-4-yl)-3,4-dihydropyrazino[1,2-a]indol-1(2H)-one], the Ki in test [1] came to 9.6 nM. Moreover, the GI50 in test [2] (setting [3]) was 370 nM.
With `Cc1cc(OCCCc2c3n(c4c(-c5c(C)nn(C)c5C)c(Cl)ccc24)[C@H](C)CN(c2cn(CC4(C)COC4)c4ccc(C(=O)O)cc24)C3=O)cc(C)c1Cl` [Example 616], the Ki in test [1] is less than 0.2 nM. Further, the GI50 in test [2] (H929 cells, 72 h, Cell TiterGlo, 10% FBS, read-out: GI50 on cellular proliferation of H929 human cancer cell lines) was 340 nM.

Source of the values: patent US11596639B2, “Substituted indole Mcl-1 inhibitors” (Vanderbilt University, priority 2016, dated 2023).
